Source: patent US20260256799A1, “INHIBITORS FOR TREATING SOLID TUMOURS” (UNIVERSITY OF SOUTHAMPTON, priority 2023, published 2026)

Key:
[1] = system: HFFF2; assay: Senescence assay (SA-β-Gal); format: cell-based, human; conditions: continuous TGF-β1 administration, at 12 days
Method: HFFF2s were plated in 24-well plates (1×10^3 or 5×10^3 cells/well) and treated with TGF-β1 the following day (and then every 3 days). Senescence was quantified at day 5 and 12 from TGF-β1 treatment determining the percentage of SA-β-Gal-positive cells (Sigma) of the total number of cells counterstained with Dapi (Sigma) as previously described. At least 200 cells/well in at least three independent experiments were counted per sample using a CKX41 Olympus fluorescent microscope. Cells were less than 50% confluent at the end of the experiment to avoid SA-β-Gal-false positive cells due to cell contact. ROS assay was performed as previously.

[2] = monotherapy, dose escalation phase 1; cited from earlier work
[3] = system: HFFF2 fibroblasts; assay: TGF-β1-induced myofibroblast differentiation of fibroblasts (Western blotting, immunofluorescence, Q-RT-PCR, collagen gel contraction); format: cell-based, human
Method: (§1) Human NSCLC cell line H441, HNSCC SCC25, murine cancer cell line TC-1 (lung), MC38 (colon) and human fetal foreskin fibroblasts HFFF2 were purchased from European Collection of Cell Cultures (Public Health England) or ATCC; HNSCC 5PT [32] were provided by l. Mackenzie (Queen Mary University of London, UK). HEK-293T cells and IMR90 lung fibroblasts were provided by Jesus Gil (Imperial College, London, UK). SCC25 were grown in Ham's F12:DMEM (1:1 ratio) medium with 10% FBS (Calbiochem) and 292 μg/ml L-Glutamine. 5PT were cultured in keratinocyte growth medium. HEK-293T, H441, MC38, HFFF2, IMR90 and primary fibroblasts were grown in DMEM supplemented with 10% FBS and 292 μg/ml L-Glutamine. Primary fibroblasts were isolated as previously used at early passage (p1-10). C57BL/6 murine normal lung and colon fibroblasts (MLF and MCF respectively) were grown at 3% oxygen. TC-1 were cultured in RPMI supplemented with 10% FBS and 292 μg/ml L-Glutamine. All cell cultures were routinely tested for mycoplasma contamination. All cells were cultured using standard cell culture plates/flasks (Corning). HFFF2 or IMR90 cells were transfected with 25 μM On-Target pool siRNA (Thermo Scientific/Dharmacon) using Oligofectamine reagent (Life Technologies) as described. Stable knockdown was performed using retro/lentiviral mediated transduction of shRNA plasmids, as previously described followed by cell selection using 1 μg/ml puromycin for 5-7 days. NOX4-inducible HEK-293 cells (kindly provided by Vincent Jaquet) were treated with 1 μg/ml doxycycline. Wild type and mutant (C2991L) ATM over-expression was carried out transfecting HFFF2 with Viafect (Promega) according to manufacturer's instructions and selected for 10 days with 4 mg/ml G418. p-Retrosuper-shATM (ATM #1:912) and pCDNA3.1-Flag-mut-ATM (C2991L; pTP1625 clone) were kindly provided by Yosef Shiloh and Tanya Paull respectively. pLKO.1 murine shATM (TRCN0000012643) and pCDNA3.1-Flag-wt-ATM (31985) were purchased from Sigma and Addgene respectively. 2 ng/ml TGF-3 (TGF-β1; R&D Systems; for 3 days) was used to induce myofibroblast differentiation. 10 ng/ml IL-1pR (R&D Systems) for 72 hours was used to induce iCAF differentiation. […] All the inhibitors were resuspended in DMSO. To trigger DDR activation and/or cell stress HFFF2 were either irradiated with 2-100Gy using 350Kv X-Ray Irradiation System (Faxitron), or treated with 100 ng/ml Neocarzinostatin for 2 hours (NCS; Sigma), with 2-10 mM H2O2(Fisher Scientific) or with 5 μg/ml Cisplatin (Sandoz) for 30 minutes.
5×10^3 HFFF2 were plated on permanox chamber slides (Thermo Scientific) and treated as described in the figure legends. Immunostaining was performed as previously. DAPI was used as nuclear counterstain and coverslips were mounted using fluorescent mounting solution (Dako). Images were taken using an Olympus IX81 fluorescence microscope and Xcellence program. DNA Damage foci were quantified from at least 8 non-overlapping FoV with ~300 cells in total per condition. Kruskall-Wallis statistical test was used to indicate the presence of a different distribution per time points in each group of foci. For collagen 1A1 deposition, 5×10^3 HFFF2 or MLF were seeded into chamber slides and treated with TGF-β1±inhibitors for a week (treated day 1 & day 4). Decellularisation was performed using 0.25M NH4OH in 50 mM Tris at 37° C. for 30 minutes and slides fixed with ice-cold 100% methanol at −20° C. followed by a blocking step. The remainderwas performed as previously described. SMA and Collagen 1A1 quantification was performed using Fiji. High resolution imaging of mouse tumours was carried out using an Axioscan.Z1 scanner (Zeiss).

[4] = system: HFFF2; assay: IL-1-induced iCAF gene expression (Q-RT-PCR); format: cell-based, human; conditions: KU55933 + 10 ng/ml IL-1p 72 hours
Method: Human NSCLC cell line H441, HNSCC SCC25, murine cancer cell line TC-1 (lung), MC38 (colon) and human fetal foreskin fibroblasts HFFF2 were purchased from European Collection of Cell Cultures (Public Health England) or ATCC; HNSCC 5PT [32] were provided by l. Mackenzie (Queen Mary University of London, UK). HEK-293T cells and IMR90 lung fibroblasts were provided by Jesus Gil (Imperial College, London, UK). SCC25 were grown in Ham's F12:DMEM (1:1 ratio) medium with 10% FBS (Calbiochem) and 292 μg/ml L-Glutamine. 5PT were cultured in keratinocyte growth medium. HEK-293T, H441, MC38, HFFF2, IMR90 and primary fibroblasts were grown in DMEM supplemented with 10% FBS and 292 μg/ml L-Glutamine. Primary fibroblasts were isolated as previously used at early passage (p1-10). C57BL/6 murine normal lung and colon fibroblasts (MLF and MCF respectively) were grown at 3% oxygen. TC-1 were cultured in RPMI supplemented with 10% FBS and 292 μg/ml L-Glutamine. All cell cultures were routinely tested for mycoplasma contamination. All cells were cultured using standard cell culture plates/flasks (Corning). […]
For Quantitative Real-time PCR (Q-RT-PCR), RNA was extracted and retro-transcribed as described previously and Q-RT-PCR was performed as previously. The mRNA expression levels were analyzed using the AACt relative quantitation method. […]

[5] = system: HNSCC and NSCLC CAF; assay: Established myoCAF phenotype of CAF cultured ex vivo; format: cell-based, human
Method: as §1
Cells were lysed in ice-cold RIPA buffer [1% NP40, 150 mM NaCl, 25 mM Tris-HCl pH 7.5, 0.1% SDS, 1% Na-Deoxycolate, 1 mM EGTA, 1 mM EDTA, 1 mM Na-orthovanadate, 10 mM Na-fluoride, 2.5 mM Na-pyrophosphate, 1 mM p glycerophosphate+freshly added 1 mM PMSF, 20 mM N-Ethylmaleimide (NEM), 10 ng/ml Microcystin-LR, 0.12 μM Okadaic acid and phosphatase and protease inhibitor cocktails; all from Sigma]. Protein extracts were then centrifuged and supernatants quantified using Dc-Bio-Rad protein assay kit (Bio-Rad laboratories) as previously. For nuclear-cytoplasmic protein extraction, the inventors used NE-PER Reagents according to manufacturer's instructions (Thermofisher). Equal amounts of protein were electrophoresed either in reducing (+Dithiothreitol, DTT) or in non-reducing conditions in 3-8% or 4-12% SDS-PAGE gels and electro blotted as previously.

[6] = system: H441, 5PT, SCC25 cells; assay: Transwell invasion assay towards fibroblast-conditioned media; format: cell-based, human
Method: CAF, HFFF2 or shCTR/shATM HFFF2 populations were treated with 13.3 μM KU55933+/−TGF-β1 for 7 days (treated day 1, day 4). Cells were washed twice with PBS and serum-free DMEM added for 72 hours. Fibroblast-conditioned medium (CM) was collected, centrifuged, filtered (0.2 μm), normalized according to cell number and used as a chemoattractant in the lower chamber of Transwell invasion assays as previously. Two-way Anova was used for statistical analysis.

In the case of “TGF-β1: cytokine (R&D Systems) used to induce myofibroblast differentiation”, the “% range SA-β-Gal-positive cells” value [1] is reported as 15.8-23.3%.

In the case of `CC(C)n1c(=O)n(C)c2cnc3cc(F)c(-c4ccc(OCCCN5CCCCC5)nc4)cc3c21` [AZD1390], the adverse effects [2] is listed as “not yet reporting to be associated with adverse effects”.

With `O=c1cc(-c2cccc3c2Sc2ccccc2S3)oc(N2CCOCC2)c1` [KU55933] the “expression of SMA” value ([3]; KU55933 13.3 μM + TGF-β1 72 hours, HFFF2 and primary colon, skin, oral fibroblasts) was “inhibiting”, the “SMA-positive stress fiber formation” value ([3]; KU55933 13.3 μM + TGF-β1, 3 days, HFFF2) was “inhibiting” and the collagen1 deposition ([3]; KU55933 13.3 μM + TGF-β1, 7 days, HFFF2, MLF one week) was “inhibiting”. For the same molecule, the “contraction of collagen gels” value ([3]; KU55933 13.3 μM + TGF-β1, HFFF2 or normal primary oral fibroblasts) was “inhibiting”, the myofibroblast differentiation ([3]; KU55933 13.3 μM co-treated with TGF-β1) was “suppressed differentiation” and the “TGF-β1 induction of myoCAF genes (COL11A1, ASPN, ELN)” value ([3]; KU55933 + TGF-β1 72 hours, HFFF2, Q-RT-PCR) was “suppressed”. The “IL-1p induction of most iCAF genes (CCL2, LIF, IL6, CXCL1)” value [4] was “significantly upregulated”, the CAF phenotype ([5]; KU55933 for 7 days) was “reverted CAF to a more quiescent phenotype” and the “expression of myofibroblast markers (SMA, collagen I, fibronectin)” value ([5]; KU55933 for 7 days) was “downregulating”. For the same molecule, the contractility ([5]; collagen gel contraction, ATM inhibition by KU55933 or shRNA-knockdown) was “suppressing”, the “invasion-promoting effects of myofibroblasts generated through TGF-β1 treatment” value ([6]; 5PT or SCC25 cells towards conditioned media of HFFF2 treated with TGF-β1 +/− KU55933 7 days) was “suppressed” and the “myoCAF-dependent cancer cell invasion” value ([6]; H441 or 5PT cells towards conditioned media of NSCLC / HNSCC CAF treated with KU55933 13.3 μM 7 days) was “inhibiting”.
